{"source": "paper PMC12380353", "about": "“MK-8527 is a novel inhibitor of HIV-1 reverse transcriptase translocation with potential for extended-duration dosing” (PLOS Biology, 2025)", "key": {"[1]": {"experiment": "PK in rhesus monkeys (plasma)", "assay_type": "in vivo", "experimental": "For the IV arm of the study, MK-8527 was administered as a bolus via the cephalic vein at 0.5 mg/kg in 30% Captisol (Ligand Pharmaceuticals, Lawrence, KS, USA). […] After the 6-h time point, they were returned to their cages and placed in a bleed chair for the subsequent time points. No anesthesia was used. As enrichment, animals were pair housed with conspecifics in cages with […]. […] Animals were fed certified primate diet (LabDiet 5048) and given a vitamin C supplement daily. In addition, animals received rotational fruit and vegetables as well as a foraging mix daily. All blood samples were centrifuged at 2,000g for 10 min, and the supernatant plasma samples were removed and stored at -70 °C until further analysis. The concentrations of MK-8527 in plasma were determined by LC-MS/MS assays following a protein precipitation step. Aliquots (50 μL) of plasma were precipitated by addition of 150 μL of acetonitrile solution-containing internal standard (IS), followed by centrifugation at 3,000 rpm for 10 min. A 75-μL aliquot of the supernatant was transferred into a 96-well plate, and 5 μL of each sample was used for analysis. LC-MS/MS analysis was performed on a Transcend LC system with HTS PAL CTC autosampler (Thermo Fisher Scientific, Waltham, MA, USA) interfaced to an API-5000 mass spectrometer using the turbo ion spray interface (Sciex, Framingham, MA, USA). Separation of MK-8527 was achieved on an Xselect HSS XP T3 column (50 × 2.1 mm, 2.5 μm; […] The chromatography for plasma samples was run using gradient elution as follows: the column was equilibrated with 100% A. […] The total run time was 4.15 min. Quantification was done by monitoring the transition of m/z 309 to m/z 169 or 133 for MK-8527. The method was linear across a concentration range of 2-10,000 ng/mL in plasma."}, "human DNA polymerase β": {"target": "human DNA polymerase β (Homo sapiens, UniProt P06746)", "experiment": "Human DNA polymerase β inhibition assay", "assay_type": "biochemical", "conditions": "highest concentration tested 200 µM", "experimental": "The activities of human DNA polymerases α, β, and γ were measured in radiolabeled nucleotide incorporation assays. TP was prepared as a 10-point titration with 3-fold serial dilution in water. Reaction buffers for the DNA polymerase α and β assays both contained 20 mM Tris pH 7.5, 10 mM MgCl2, 50 μM EDTA, 200 μg/mL bovine serum albumin (BSA), 2 mM dithiothreitol (DTT), 1.6 μM each of dNTP (dATP, dCTP, dGTP, and dTTP), 20 μCi/mL [α33P]dATP, 0.1 mg/mL gapped activated fish sperm DNA template, test compound, and 0.005 U/μL DNA polymerase α or 0.0025 U/μL DNA polymerase β. The reaction buffer for DNA polymerase γ contained 20 mM Tris pH 8, 10 mM MgCl2, 50 mM KCl, 100 μg/mL BSA, 2 mM β-mercaptoethanol, 10 μM of each dNTP (dATP, dCTP, dGTP, and dTTP), 20 μCi/mL [α33P]dATP, 0.04 mg/mL gapped activated fish sperm DNA template, test compound, and 0.0003 μg/μL DNA polymerase γ. The 50-μL reactions were incubated at room temperature for 30 min (for β and γ) or 90 min (for α) before terminating with the addition of 50 μL 500 mM EDTA. The reaction mixtures were transferred to a Millipore DE81 filter plate (EMD Millipore; Hayward, CA), washed with 0.5 M sodium phosphate pH 7.0, and dried. After addition of 40 μL scintillant to each well, the incorporation of labeled dATP was determined with a microplate counter (TopCount NXT HTS; PerkinElmer, Shelton, CA, USA)."}}, "note": "Values joined by “and” are separate entries in the source; they are usually repeats but may differ in a detail not shown here. Equal values may be shown once. Read-outs that look alike come from different tables or passages of the source.", "data": [{"smiles": "C#C[C@]1(CO)O[C@@H](n2ccc3c(N)nc(Cl)nc32)C[C@@H]1O", "note": "[Compound 12, (2R,3S,5R)-5-(4-amino-2-chloro-7H-pyrrolo[2,3-d]pyrimidin-7-yl)-2-ethynyl-2-(hydroxymethyl)tetrahydrofuran-3-ol]", "values": [{"measurement": "concentration at 72 h", "setting": "[1]; monkeys, oral 50 mg/kg, 0.25 hr, listed as MK-8527, 50 mg/kg, read-out: Concentration in plasma, individual subjects", "result": "7.22 µM and 1.93 µM and 8.67 µM"}, {"measurement": "concentration at 72 h", "setting": "[1]; monkeys, oral 50 mg/kg, 0.5 hr, listed as MK-8527, 50 mg/kg, read-out: Concentration in plasma, individual subjects", "result": "11.00 µM and 4.12 µM and 11.10 µM"}, {"measurement": "concentration at 72 h", "setting": "[1]; monkeys, oral 50 mg/kg, 1 hr, listed as MK-8527, 50 mg/kg, read-out: Concentration in plasma, individual subjects", "result": "29.80 µM and 7.40 µM and 20.20 µM"}, {"measurement": "concentration at 72 h", "setting": "[1]; monkeys, oral 50 mg/kg, 2 hr, listed as MK-8527, 50 mg/kg, read-out: Concentration in plasma, individual subjects", "result": "30.50 µM and 11.00 µM and 27.80 µM"}, {"measurement": "concentration at 72 h", "setting": "[1]; monkeys, oral 50 mg/kg, 4 hr, listed as MK-8527, 50 mg/kg, read-out: Concentration in plasma, individual subjects", "result": "15.20 µM and 15.40 µM"}, {"measurement": "concentration at 72 h", "setting": "[1]; monkeys, oral 50 mg/kg, 6 hr, listed as MK-8527, 50 mg/kg, read-out: Concentration in plasma, individual subjects", "result": "14.30 µM and 9.31 µM"}, {"measurement": "concentration at 72 h", "setting": "[1]; monkeys, oral 50 mg/kg, 24 hr, listed as MK-8527, 50 mg/kg, read-out: Concentration in plasma, individual subjects", "result": "1.81 µM and 1.27 µM"}, {"measurement": "concentration at 72 h", "setting": "[1]; monkeys, oral 50 mg/kg, 30 hr, listed as MK-8527, 50 mg/kg, read-out: Concentration in plasma, individual subjects", "result": "0.81 µM and 0.58 µM"}, {"measurement": "concentration at 72 h", "setting": "[1]; monkeys, oral 50 mg/kg, 48 hr, listed as MK-8527, 50 mg/kg, read-out: Concentration in plasma, individual subjects", "result": "0.31 µM and 0.26 µM and 0.13 µM"}, {"measurement": "concentration at 72 h", "setting": "[1]; monkeys, oral 50 mg/kg, 72 hr, listed as MK-8527, 50 mg/kg, read-out: Concentration in plasma, individual subjects", "result": "0.07 µM and 0.05 µM"}, {"measurement": "concentration at 72 h", "setting": "[1]; monkeys, oral 50 mg/kg, 168 hr, listed as MK-8527, 50 mg/kg, read-out: Concentration in plasma, individual subjects", "result": "0.0143 µM and 0.0113 µM and 0.00651 µM"}, {"measurement": "half-life", "setting": "[1]; rhesus monkey, plasma, iv, 0.5 mg/kg, monkey, plasma, IV 0.5 mg/kg, read-out: t½ (converted)", "result": "~7", "unit": "h"}, {"measurement": "concentration at 0.25 h", "setting": "[1]; rhesus monkey, plasma, po, 50 mg/kg, monkeys, oral 50 mg/kg, 0.25 hr, read-out: Arithmetic Mean Concentration in plasma", "result": 4.94, "unit": "µM"}, {"measurement": "concentration at 0.5 h", "setting": "[1]; rhesus monkey, plasma, po, 50 mg/kg, monkeys, oral 50 mg/kg, 0.5 hr, read-out: Arithmetic Mean Concentration in plasma", "result": 7.95, "unit": "µM"}, {"measurement": "concentration at 1 h", "setting": "[1]; rhesus monkey, plasma, po, 50 mg/kg, monkeys, oral 50 mg/kg, 1 hr, read-out: Arithmetic Mean Concentration in plasma", "result": 16.4, "unit": "µM"}, {"measurement": "concentration at 30 h", "setting": "[1]; rhesus monkey, plasma, po, 50 mg/kg, monkeys, oral 50 mg/kg, 30 hr, read-out: Arithmetic Mean Concentration in plasma", "result": 0.79, "unit": "µM"}, {"measurement": "concentration at 30 h", "setting": "[1]; rhesus monkey, plasma, po, 50 mg/kg, monkeys, oral 50 mg/kg, 30 hr, read-out: Concentration in plasma, individual subjects", "result": 1.04, "unit": "µM"}, {"measurement": "concentration at 48 h", "setting": "[1]; rhesus monkey, plasma, po, 50 mg/kg, monkeys, oral 50 mg/kg, 48 hr, read-out: Arithmetic Mean Concentration in plasma", "result": 0.22, "unit": "µM"}, {"measurement": "concentration at 72 h", "setting": "[1]; rhesus monkey, plasma, po, 50 mg/kg, monkeys, oral 50 mg/kg, 72 hr, read-out: Arithmetic Mean Concentration in plasma", "result": 0.07, "unit": "µM"}, {"measurement": "concentration at 72 h", "setting": "[1]; rhesus monkey, plasma, po, 50 mg/kg, monkeys, oral 50 mg/kg, 72 hr, read-out: Concentration in plasma, individual subjects", "result": 0.09, "unit": "µM"}, {"measurement": "concentration at 168 h", "setting": "[1]; rhesus monkey, plasma, po, 50 mg/kg, monkeys, oral 50 mg/kg, 168 hr, read-out: Arithmetic Mean Concentration in plasma", "result": 0.01, "unit": "µM"}, {"measurement": "clearance", "setting": "[1]; rhesus monkey, plasma, monkey, IV 0.5 mg/kg, read-out: CLp", "result": "12.6 ± 3.3", "unit": "mL/min/kg"}, {"measurement": "Vd", "setting": "[1]; rhesus monkey, plasma, monkey, IV 0.5 mg/kg, read-out: Vdss", "result": "4.4 ± 0.8", "unit": "L/kg"}, {"measurement": "bioavailability", "setting": "[1]; rhesus monkey, plasma, monkey, oral 1 mg/kg", "result": 100, "unit": "%"}, {"measurement": "concentration at 2 h", "setting": "[1]; rhesus, rhesus monkey, plasma, po, 50 mg/kg, monkeys, oral 50 mg/kg, 2 hr, read-out: Arithmetic Mean Concentration in plasma", "result": 21.1, "unit": "µM"}, {"measurement": "concentration at 4 h", "setting": "[1]; rhesus, rhesus monkey, plasma, po, 50 mg/kg, monkeys, oral 50 mg/kg, 4 hr, read-out: Arithmetic Mean Concentration in plasma", "result": 15.8, "unit": "µM"}, {"measurement": "concentration at 4 h", "setting": "[1]; rhesus, rhesus monkey, plasma, po, 50 mg/kg, monkeys, oral 50 mg/kg, 4 hr, read-out: Concentration in plasma, individual subjects", "result": 16.9, "unit": "µM"}, {"measurement": "concentration at 6 h", "setting": "[1]; rhesus, rhesus monkey, plasma, po, 50 mg/kg, monkeys, oral 50 mg/kg, 6 hr, read-out: Arithmetic Mean Concentration in plasma", "result": 11, "unit": "µM"}, {"measurement": "concentration at 6 h", "setting": "[1]; rhesus, rhesus monkey, plasma, po, 50 mg/kg, monkeys, oral 50 mg/kg, 6 hr, read-out: Concentration in plasma, individual subjects", "result": 10.1, "unit": "µM"}, {"measurement": "concentration at 24 h", "setting": "[1]; rhesus, rhesus monkey, plasma, po, 50 mg/kg, monkeys, oral 50 mg/kg, 24 hr, read-out: Arithmetic Mean Concentration in plasma", "result": 1.75, "unit": "µM"}, {"measurement": "concentration at 24 h", "setting": "[1]; rhesus, rhesus monkey, plasma, po, 50 mg/kg, monkeys, oral 50 mg/kg, 24 hr, read-out: Concentration in plasma, individual subjects", "result": 2.34, "unit": "µM"}]}, {"smiles": "C#C[C@]1(COP(=O)(O)OP(=O)(O)OP(=O)(O)O)O[C@@H](n2ccc3c(N)nc(Cl)nc32)C[C@@H]1O", "note": "[MK-8527-TP]", "values": [{"measurement": "Inhibitory activity", "setting": "human DNA polymerase β", "result": "no inhibitory activity"}]}]}
